Test results taken from US10772884B2, “Sulphate salts of N-(3-(4-(3-(diisobutylamino)propyl)piperazin-1-yl)propyl)-1H-benzo[d]imidazol-2-amine, preparation thereof and use of the same” (ALZPROTECT, priority 2012, dated 2020).
Structures can show the parent of a compound that is named as a salt.

Experiments:
[1] = DSC analysis of crystalline phase; assay type: physicochemical; settings: DSC endotherm
Experimental: DSC spectra. TA Instrument, DSC Q10.
DSC spectra were recorded on a TA DSC Q10 instrument within a temperature range of −10° C. to 300° C. or 400° C. and with 10° C. increments.

[2] = salt formation results (physical form); assay type: physicochemical
Experimental: The hydrochloride, hydrobromide, acetate, tartrate, fumarate, malate, oxalate and sulphate salts of N-(3-(4-(3-(diisobutylamino)propyl)piperazin-1-yl)propyl)-1H-benzo[d]imidazol-2-amine were prepared according to procedures similar to those described in the previous examples or standard salt formation methods well known in the art.

[3] = sample left standing open to the air (hygroscopicity, stability); assay type: physicochemical; settings: listed as chloride salt
Source text: Both sulphate salts precipitated as solids. They were found stable when left open to the air. In contrast to the chloride salt, no hygroscopicity issue was observed.

[4] = XRPD analysis of crystallinity; assay type: physicochemical; settings: powder, ambient
Experimental: X-ray powder diffraction (XRPD) analysis is performed on a Brüker—AXS D8 Advance diffractometer, using a copper anti-cathode, a mono-crystalline silicon sample holder and a position sensitive detector. Instrument operating conditions for X-rays pattern acquisition are described in Table 2.
The powder sample is dispersed on the silicon sample holder in a way to avoid preferred orientation (not randomly oriented crystals) and to ensure planarity of the specimen surface.

[5] = Dynamic vapour sorption (DVS) with water; assay type: physicochemical
Experimental: Dynamic vapour sorption (DVS) analyses with water were performed on a DVS-Intrisic incubator from SMS Ltd, equipped with DVS-Intrisic Control Software 1.0.
A sample of about 5 to 10 mg, placed in an aluminium pan holder, was submitted to a full-cycle analysis (sorption followed by desorption) under the conditions described in Table 3.
The sample was pre-dried under a stream of dry filtered air until a stable mass was obtained. Relative humidity was then increased by 5% increments. At each step, the sample was allowed to increase until equilibrium is reached (dm/dt criterion), then relative humidity was increased further. Relative humidity was ramped up to 95%. After equilibration at this stage, desorption is started in a similar stepwise manner, with a sample weight allowed to stabilize after each incremental humidity decrease step.
DVS analysis was carried out according to the method described above.

Tau protein = experiment: Chronic treatment 3-months, Tau protein phosphorylation; assay type: in vivo, C57Bl6 female mice; settings: mice, 0.5, 1 or 3 mg/kg in drinking water, brain tissues
Source text: Chronic Treatment: 3-Months
(§1) Neuropathological disorders are also characterized by abnormal phosphorylation of Tau protein (AT100). Hyperphosphorylation of the tau protein (on specific sites) can result in the intracellular accumulation of neurofibrillary tangles (NFTs), involved in the pathogenesis of Alzheimer's disease and other tauopathies. One axis of the study was thus to study the effect of the sulphate salt of example 2 on this abnormal phosphorylation. In parallel, such effect was also monitored with regards to the non-pathological phosphorylation of Tau protein (AT8) which should remain unaffected. Another axis of this study was thus the impact of the sulphate salt of example 2 on oxidative stress (OS). Therefore, levels of lipidic peroxidation, a well known marker for the evaluation of oxidative stress, were determined. Indeed, oxidative stress (OS), by the generation of toxic reactive oxygen species (ROS) and oxidative damage (oxidation of vital cellular components as lipids, proteins and DNA), is believed to be involved in the pathogenesis of neurodegenerative disorders. […]
4-month old C57Bl6 female mice were provided with 0.5, 1 or 3 mg/kg of compound of example 2 dissolved in their drinking water. […] Volume consumed was calculated by weighing each bottle after each week and the remaining volume was discarded. […]

APP metabolism [6] = experiment: In vivo APP metabolism assay, acute treatment 24 h p.o.; parameters: species or system C57Bl6 female mice
Experimental: In Vivo APP Metabolism Assay
(§2) In vivo experiments were carried out on 4-month old C57Bl6 female mice or 2-month old Sprague Dawley rats.
Acute treatment: 24 h p.o.
C57Bl6 female mice were treated per os (gavage) with vehicle or compound (example 2) at 0.25, 0.5, 1, 3 and 6 mg/kg mg/kg (n=6 per group) for 24 h. The product was administered with a disposable Rodent Feeding Tube ECIMED Ref # V0104030 (4 mm×30 mm). The animals were sacrificed after 24 h, the brain was immediately removed for dissection. Levels of CTFα in the frontal cortex (FC) and/or the hippocampus (HIP) were measured by western-blot analysis as previously described. Briefly, tissues were homogenized with […], of lysis buffer (10 mL of Laemmli Pre-Lysis Buffer and 1 tablet of Protease Inhibitor cocktail Complete Mini (Roche)) in a potter. After sonication (5 min), homogenates were centrifuged at 1600 rpm 5 min 4° C. Supernatants were aliquoted and stored at −80° C. before western blot analysis.

APP metabolism [7] = experiment: In vivo APP metabolism assay, chronic treatment 1-month; parameters: species or system Sprague Dawley rats; settings: rats, 1 or 10 mg/kg/day in drinking water, one month
Experimental: as §2
Chronic Treatment: 1-Month
Rats were provided for one month with 1 or 10 mg/kg/day of the compound of example 2 dissolved in their drinking water. […] The animals were sacrificed after one month and levels of CTFα and CTFβ in the frontal cortex (FC) and/or the hippocampus (HIP) were measured by western-blot analysis as previously described. Dose dependent results are shown on FIGS. 22-a and 22-b. […] The frontal cortex is generally the first region of the brain to be affected by amyloid plaques formation in abnormal APP metabolism related diseases while the hippocampus, which is highly involved in memory and recollection processes, is latterly but severely affected. The sulphate salt of example 2 thus has very positive effect on APP metabolism in both the frontal cortex and the hippocampus and could is therefore of interest in the treatment of neurodegenerative diseases, in particular for both early and advanced stages of abnormal APP metabolism related diseases.

[8] = system: APP metabolism in SH-5Y5Y cells (human neuroblastoma cell line overexpressing wild type human APP); experiment: In vitro APP metabolism assay; assay type: cell-based; settings: 0.3, 1, 3 and 10 μM, 24 h
Experimental: In Vitro APP Metabolism Assay
This assay was performed using SH-5Y5Y cells (human neuroblastoma cell line overexpressing wild type human APP) which were treated for 24 h with the sulphate salt of example 2. This test was carried out at four different compound concentrations of 0.3, 1, 3 and 10 μM. Quantification of different metabolites was achieved by western-blot analysis. CTFa, CTFβ and AICD were analysed using anti-actin ((I-19) (SC-1616 Santa Cruz Biotechnology; 1:1000 from 200 μg/ml stock) as an internal control and anti-C term APP antibody (1:250000 in washing buffer). Protein concentrations were determined by the BCA Protein Assay Kit (Thermo Scientific). Samples (20 μg total protein) were separated by 16% SDS-PAGE according to the molecular weight of each protein, and transferred to nitrocellulose membranes.

SH-5Y5Y cell line = experiment: cytotoxicity CC50; assay type: cell-based, human; settings: concentration at which 50% of plated cells remain alive
Experimental: In addition, it is remarked that no cytotoxicity was found for this sulphate salt, its CC50 on SH-5Y5Y cell line was found greater than 30 μM. CC50 is defined herein as the concentration at which 50% of plated cells remain alive.

lipid peroxidation = experiment: Chronic treatment 3-months, LPO levels (modified FOX assay); assay type: in vivo, C57Bl6 female mice; settings: mice, 0.5, 1 or 3 mg/kg in drinking water, hippocampi
Source text: as §1, with “determined.” for “determined. Indeed, oxidative stress (OS), by the generation of toxic reactive oxygen species (ROS) and oxidative damage (oxidation of vital cellular components as lipids, proteins and DNA), is believed to be involved in the pathogenesis of neurodegenerative disorders.”
4-month old C57Bl6 female mice were provided with 0.5, 1 or 3 mg/kg of compound of example 2 dissolved in their drinking water. […] Volume consumed was calculated by weighing each bottle after each week and the remaining volume was discarded.
LPO levels measurements: the level of lipid peroxidation in hippocampi is determined as cumene hydroperoxide (CHP) equivalents and expressed as CHP equivalents per wet weight of tissue and as percentage of control group data following the modified FOX assay.

water solubility = assay type: physicochemical

## Fumarate
[1]
  crystalline phase by DSC: not crystalline
[2]; Acid eq. added 1
  Physical form: Not crystalline^2

## Cl [Chloride]
[3]
  hygroscopicity: very hygroscopic

## Tartrate
[1]
  crystalline phase by DSC: not crystalline
[2]; Acid eq. added 1
  Physical form: Not crystalline^2

## Oxalate
[2]; Acid eq. added 2
  Physical form: Gum
[2]; Acid eq. added 3
  Physical form: Gum
[2]; Acid eq. added 4
  Physical form: Crystalline powder

## Sulphate
[2]; Acid eq. added 1
  Physical form: Crystalline powder (colorless
[2]; Acid eq. added 2
  Physical form: Crystalline powder (colorless

## CC(C)CN(CCCN1CCN(CCCNc2nc3ccccc3[nH]2)CC1)CC(C)C [Example 1, N-(3-(4-(3-(diisobutylamino)propyl)piperazin-1-yl)propyl)-1H-benzo[d]imidazol-2-amine, 2.9 eq sulphate salt]
[4]; sulphate salt
  crystallinity by XRPD: well good crystalline phase

## CC(C)CN(CCCN1CCN(CCCNc2nc3ccccc3[nH]2)CC1)CC(C)C.O=S(=O)(O)O [Example 3, N-(3-(4-(3-(diisobutylamino)propyl)piperazin-1-yl)propyl)-1H-benzo[d]imidazol-2-amine, 1 eq sulphate salt]
[4]
  crystallinity by XRPD: good crystallinity
[5]; 25° C./0% RH
  mass lost upon drying: 0.18%
  remaining amount of water upon desorption: 4.6%
[5]; 25° C./60% RH
  hygroscopicity (criterion: more than 2% by weight water uptake): not hygroscopic
[5]; 25° C./60% RH, compared to sample mass after initial drying at 0% RH
  water uptake upon sorption: 0.7%
[5]; 25° C./75% RH as printed, interval 95 to 90% RH
  residual water remaining upon desorption: 10%
[5]; 25° C./75% RH, interval 75 to 10% RH
  hysteresis (adsorbed water retained upon desorption): up to 6.7%
[5]; 25° C./80% RH, compared to sample mass after initial drying at 0% RH
  water uptake upon sorption: 1.5%
[5]; 25° C./90% RH, compared to sample mass after initial drying at 0% RH
  water uptake upon sorption: 9.7%
[5]; 25° C./95% RH, compared to sample mass after initial drying at 0% RH
  water vapour uptake upon sorption: 19.4%

## CC(C)CN(CCCN1CCN(CCCNc2nc3ccccc3[nH]2)CC1)CC(C)C.O=C(O)C(=O)O.O=C(O)C(=O)O.O=C(O)C(=O)O.O=C(O)C(=O)O [4 eq oxalate salt, N-(3-(4-(3-(diisobutylamino)propyl)piperazin-1-yl)propyl)-1H-benzo[d]imidazol-2-amine, 4 eq oxalate salt, reference compound]
[1]
  crystalline phase by DSC: most well shaped and defined endotherm
[4]
  crystallinity by XRPD: little or poor crystallinity

## Malate
[2]; Acid eq. added 1
  Physical form: Powder

## CC(C)CN(CCCN1CCN(CCCNc2nc3ccccc3[nH]2)CC1)CC(C)C [Example 4, N-(3-(4-(3-(diisobutylamino)propyl)piperazin-1-yl)propyl)-1H-benzo[d]imidazol-2-amine, 2 eq sulphate salt]
[4]
  crystallinity by XRPD: good crystallinity

## CC(C)CN(CCCN1CCN(CCCNc2nc3ccccc3[nH]2)CC1)CC(C)C.O.O.O=S(=O)(O)O [di-hydrated form of example 3, di-hydrated form of N-(3-(4-(3-(diisobutylamino)propyl)piperazin-1-yl)propyl)-1H-benzo[d]imidazol-2-amine, 1 eq sulphate salt]
[5]; 25° C., second sorption/desorption cycle
  stability and hygroscopicity in second DVS cycle: stable and non hygroscopic
[5]; DVS 25° C.
  water uptake for the di-hydrated form, experimentally determined: 6.7%
[5]; calculated
  theoretical water uptake for the di-hydrated form: 6.8%

## CC(C)CN(CCCN1CCN(CCCNc2nc3ccccc3[nH]2)CC1)CC(C)C [Example 2, N-(3-(4-(3-(diisobutylamino)propyl)piperazin-1-yl)propyl)-1H-benzo[d]imidazol-2-amine, 1.8 eq sulphate salt]
Tau protein
  AT8 levels (normal Tau protein phosphorylation): not affecting
  AT100 levels (pathological Tau protein phosphorylation): decreases
APP metabolism [6]; mice, 6 mg/kg per os
  CTFα levels in the frontal cortex, comparison to the oxalate salt of WO2006/051489: superior efficiency
APP metabolism [6]; mice, 0.25, 0.5, 1, 3 and 6 mg/kg per os
  CTFα levels in the frontal cortex: increasing concentrations
APP metabolism [7]
  CTFα levels in the frontal cortex: increasing concentrations
  CTFβ levels in the hippocampus: decreasing concentrations
[8]
  Aβ1-42 levels: decreased level
  sAPPα levels: dose dependent increased levels
[8]; western-blot
  AICD levels: dose dependent increased levels
  CTFα levels: dose dependent increased levels
SH-5Y5Y cell line
  CC50: > 30 µM
Lipid peroxidation
  LPO levels: significant decrease
Water solubility
  water solubility: remarkable high solubility

## CC(=O)O [Acetate]
[2]; Acid eq. added 1
  Physical form: No solid formed, oily residue
[2]; Acid eq. added 2
  Physical form: No solid formed, oily residue
